According to patent US8193238B2, “Inhibition of microtubule protrusion in cancer cells” (University of Maryland, Baltimore, priority 2006, dated 2012):

How the values were obtained:
MCF10A cells [1] = experiment: Chemical inhibition of Latrunculin-A-enhanced microtubule protrusions in suspended cells; type: cell-based, human; conditions: MCF10A in suspension, then LA 5 μM one hour; sodium orthovanadate 1 mM, S-Trityl-L-Cysteine 100 μM, TDZD-8 20 μM
Method: MCF10A cells were placed into suspension in the presence of the indicated chemical inhibitors targeted at specific signaling pathways or the corresponding vehicle controls. Cells were then treated with the actin polymerization inhibitor, Latrunculin-A (LA, 5 μM) for one hour to enhance protrusions. […] Thus, protrusions can be reduced by chemical inhibition of specific signaling proteins.

microtentacles = experiment: Microtentacle frequency after pretreatment with Okadaic Acid or Calyculin-A; type: cell-based; conditions: pretreated 1 h, suspended with or without Latrunculin-A
Method: In FIG. 35, cells were pretreated for 1 h with DMEM media alone (Control) or the indicated concentrations of either Okadaic Acid (OKA) […] or Calyculin-A (Cal-A) to promote vimentin disassembly. Cells were then suspended by trypsinization with or without addition of Latrunculin-A (LA) to enhance microtentacle frequency.

[2] = test system: detached mammary epithelial cells; experiment: Protrusions of detached mammary epithelial cells, general statements; type: cell-based, human and mouse
Method: Time-lapse video microscopy of detached mammary epithelial cells detected the extension of long, dynamic protrusions of the plasma membrane, and the present inventors have characterized the cytoskeletal mechanism underlying this novel observation. […] This response may be relatively short-lived, in specific embodiments, since mammary epithelial cells die by apoptosis within about 24 hours in suspension. However, cell lines that resist apoptosis through expression of either Bcl-2 or Bcl-xL will persistently form protrusions. Previous studies by the inventors indicate that such apoptotically-resistant cell lines will not form tumors in mice and lie dormant in distant tissues, in specific embodiments of the invention. […] These microtubule processes can extend more than 3 times the cell diameter, and undergo a rapid probing motion more than once per second. Formation of these microtubule protrusions is necessary for efficient cell-cell and cell-substratum attachment. In particular embodiments of the invention, this inherent microtubule response in detached mammary epithelial cells provides at least some of the invasive characteristics of breast cancer, independent of any tumor-specific genetic alteration, for example.
Breast tumor cells enter the bloodstream long before the development of clinically evident metastasis. However, the early presence of such bloodborne cells predicts poor patient outcome. Nearly 90% of human breast tumors arise as carcinomas from mammary epithelial cells, so it is important to characterize how these cells respond to the detached conditions that they would experience in the bloodstream. In the present invention, mammary epithelial cell lines produce long and dynamic protrusions of the plasma membrane when detached. Although human and mouse mammary epithelial cell lines die by apoptosis within 16 hours of detachment, this protrusive response persists for days in cells overexpressing either Bcl-2 or Bcl-xL, for example. […] Since bloodborne metastasis depends on both cell-cell and cell-matrix attachment, microtubule-based protrusions in detached mammary epithelial cells provide a novel target that could influence the metastatic spread of breast tumors.
Detachment-induced increases in Glu-tubulin could promote plasma membrane protrusions of microtubules by preventing efficient capture at the actin cortex. […] Therefore, our current model is that detachment increases stabilized microtubules enriched in Glu-tubulin, while decreased actin polymerization simply promotes extension of these microtubule protrusions.

EpH4 cells = experiment: Protrusions in suspended cells treated with cytoskeletal inhibitors (EpH4); type: cell-based, mouse; conditions: EpH4, 15 minutes of suspension; Latrunculin-A 5 μM, Colchicine 1 μM
Method: (§1) In FIG. 2A, after 15 minutes of suspension, protrusions in EpH4 and MCF10A cells are quite small (Control, white arrows). […] In FIG. 2B, populations of live, suspended cells were scored blindly for two or more protrusions longer than the cell radius. Each bar represents the mean+S.D. for three experiments in which at least 100 single cells were counted.
EpH4 cells were suspended in either DMEM (Control) or media containing 5 μM Latrunculin-A (LA), 1 μM Colchicine or the combination of both drugs for 30 minutes. Cells were then spun onto glass coverslips and fluorescently stained for α-tubulin (green) and polymerized actin (red). Protrusions that are difficult to see by phase contrast are easily discernible with immunostaining for α-tubulin (white arrows). Protrusions contain little polymerized actin, except at points of concentration, which are often at the end (arrowhead).
EpH4 and B19 cells were suspended over 2% agarose coated plates to prevent attachment in either serum-free DMEM or media containing. Latrunculin-A (5 μM) to enhance protrusions. For co-staining of α-tubulin and actin, suspended cells were then centrifuged onto poly-L-lysine coated coverslips (280 g×5 min), fixed in 3.7% formaldehyde in PBS for 10 min, and permeablized with 0.1% Triton X-100 in PBS. Adhered cells were then stained for 1 hr at room temperature using FITC-conjugated anti-α-tubulin (1:200; Sigma), Alexa-594 phalloidin (1:100; Molecular Probes), and Hoescht 33342 (1:5000; Sigma).
(§2) In order to initially characterize the cytoskeletal mechanism underlying these protrusions, suspended cells were treated with inhibitors of actin and tubulin polymerization (FIG. 2). After 15 minutes of suspension, the protrusions in untreated EpH4 or MCF10A cells remain fairly short (FIG. 2, white arrows). These early protrusions can often be difficult to detect with phase-contrast microscopy, due to interfering light refraction from the plasma membrane. […] Protrusions were more easily visible with immunofluorescence than phase contrast microscopy (FIG. 3, white arrows). Although actin filament staining was generally low along the length of the protrusion, dense points of actin were often found at the end of protrusions (FIG. 3, arrowheads).

MCF10A cells [3] = experiment: Protrusions in suspended cells treated with cytoskeletal inhibitors (MCF10A); type: cell-based, human; conditions: MCF10A, 15 minutes of suspension; Latrunculin-A 5 μM, Colchicine 1 μM
Method: as §1, §2
The nontumorigenic human mammary epithelial cell line (MCF10A) or the indicated human breast tumor cell lines were grown in suspension for 30-60 minutes, and protrusions were counted in random fields with phase-contrast microscopy. Values represent the mean±S.D. of three experiments in which at least 100 cells were counted. […] This effect was most apparent in the highly metastatic but exemplary Bt-474 and MDA-MB-231 cells (pictured, black arrows). The exemplary MCF10A cells show far fewer and shorter protrusions at the same time point (pictured, white arrows). Such protrusions are not observed in attached cells.

EpH4-Bcl2 cells [4] = experiment: Cell-substratum attachment assay; type: cell-based, mouse; conditions: for attachment of cells to tissue culture surfaces: EpH4-Bcl2 (B19), 1 hr in suspension with inhibitor, then replated
Method: (§3) In FIG. 6A, EpH4-Bcl2 cells were suspended over agarose and treated with inhibitors as above. Following treatment, cells were plated into 0.3% methylcellulose media over agarose and the rate of cell-cell attachment was followed by Hoescht DNA staining. […] Similar results were found in three independent experiments. In FIG. 6B, EpH4-Bcl2 cells suspended over agarose for one hour in DMEM or DMEM containing LA (5 μM), Colchicine (1 μM), or the combination. Reattachment of these cells to either uncoated tissue culture plates or those pre-coated with laminin was followed by XTT cell viability assay. Values represent mean+S.D. of raw XTT values of three separate experiments.
Equivalent numbers of B19 cells were suspended over 6-well plates coated in 2% agarose in serum-free media containing 5 μM Latrunculin-A (LA; BioMol, Plymouth Meeting, Pa.), 100 μM colchicine (Col; Sigma, St. Louis, Mo.), 5 μg/ml nocodazole (Noc), or 1 μg/ml vinblastine (VinB; Sigma) for a duration of 1 hr at 37° C. Cells were collected by centrifugation (1000 rpm×5 min) and drug containing media was aspirated. Cells were resuspended in EpH4 serum-containing growth media and aliquoted out into 24 wells (8 timepoints×3 replicates) of a 96-well clear bottom black plate. After plating, cells were allowed to attach for duration of 15 min, 45 min, 1.5 hr, 2 hr, 3 hr, 4 hr, 5 hr, and 24 hr at which point the media was aspirated from the replicate wells, washed twice in PBS, and fresh growth media was replaced at each timepoint. After 24 hr, all wells were aspirated and cells were incubated in growth media containing Hoescht 33342 (1:5000) for 30 min at 37° C. to label all attached cells. Fluorescence was measured using a Biotek Synergy HT Multi-Detection Microplate Reader (Winooski, Vt.) at excitation wavelength 360 nm and an emission filter of 460 nm followed by subsequent analysis using the KC4 Data Analysis software. The percentage of cell attachment for each treatment exposure was calculated as the RFU at each timepoint divided by the RFU at 24 h (maximum attachment). The standard deviations of triplicates at each timepoint are shown.
(§4) To determine if these microtubule protrusions influence the ability of cells to form attachments, the cells were treated with inhibitors of actin or tubulin polymerization and assessed both cell-cell and cell-substratum attachment (FIG. 6). […] Induction of such nonspecific attachment activity in detached mammary epithelial cells could promote tumor cell dissemination, particularly when apoptotic resistance allows this response to continue for extended periods.

EpH4-Bcl2 cells [5] = experiment: Cell-cell attachment assay; type: cell-based, mouse; conditions: EpH4-Bcl2 in 0.3% methylcellulose over agarose, 5 hours
Method: as §3
B19 cells were seeded onto 10 cm dishes until 80% confluency. The media was aspirated and cells were incubated in fresh growth media containing Hoescht 33342 (1:5000) for 30 min at 37° C. to label all attached cells. The cells were washed twice in PBS, detached by trypsinization, and an equivalent number of cells were resuspended in serum-free media containing 0.3% methylcellulose with either 5 μM Latrunculin A, 100 μM Colchicine, 1 μg/ml vinblastine, or 5 μg/ml nocodazole and plated over 2% agarose-coated 24-well plates. The progression of cell-cell adhesion over time was visualized by the EpiChemi3 Imaging System (UVP, Inc.; Upland, Calif.) using an excitation wavelength of 365 nm and a blue band pass filter. Images were obtained with an attached Hamamatsu CCD camera (Hamamatsu Photonics, Hamamatsu City, Japan) and analyzed with UVP Labworks Image Acquisition and Analysis Software v. 4.6.
as §4

Bt-474 = experiment: GFP-membrane protrusion counts after local anesthetics (Bt-474); type: cell-based, human; conditions: Bt-474, GFP-membrane; Lidocaine 50 mM, Tetracaine 2.5 mM; with or without LA
Method: (§5) Cells were then suspended in DMEM culture media with or without […] Latrunculin-A (LA) to induce protrusions by depolymerizing actin. […] Bars represent mean+S.D. of at least three blindly counted experiments.

MDA-231 = experiment: GFP-membrane protrusion counts after local anesthetics (MDA-231); type: cell-based, human; conditions: MDA-231, GFP-membrane; Lidocaine 50 mM, Tetracaine 2.5 mM; with or without LA
Method: as §5

metastasis = conditions: known, via unclear mechanism; cited from earlier work

In the case of `CCCCCC[C@@H]([C@@H](C)O)n1cnc2c(N)ncnc21` (racemic) [EHNA], the protrusions (MCF10A cells [1]) is reported as “reduced protrusions, but these results were not statistically significant”.
In the case of `COC[C@@H]([C@H](O)[C@H](O)C(=O)NCC[C@H](C)c1nc(/C=C/C[C@@H]2O[C@]3(C[C@@H](O)[C@@H]2C)O[C@H]([C@H](C[C@H](O)[C@H](C)[C@H](O)[C@H](C)/C=C(C)/C(C)=C/C=C/C(C)=C\C#N)OC)[C@H](OP(=O)(O)O)C3(C)C)co1)N(C)C` [Calyculin-A], the microtentacles (microtentacles) is reported as “reduce microtentacles significantly” and the microtentacles (microtentacles; listed as calyculin-A) is reported as “reduces microtentacles”.
In the case of `COc1cc2c(c(OC)c1OC)-c1ccc(OC)c(=O)cc1[C@@H](NC(C)=O)CC2` [Colchicine], the protrusions [2] is reported as “inhibited”, the protrusions (EpH4 cells) is reported as “prevented protrusions” and the protrusions (MCF10A cells [3]) is reported as “prevented protrusions”. For the same compound, the “attachment of cells to tissue culture surfaces” value (“attachment of cells” for short) (EpH4-Bcl2 cells [4]) was “significantly delayed attachment”, the “cell-surface attachment to uncoated or laminin-coated plates (XTT)” value (EpH4-Bcl2 cells [4]; EpH4-Bcl2 suspended one hour, LA 5 μM, Colchicine 1 μM) was “significantly prevents initial cell attachment” and the “cell-cell attachment (clustering)” value (EpH4-Bcl2 cells [5]) was “prevented efficient clustering”.
For `CCN(CC)CC(=O)Nc1c(C)cccc1C` [Lidocaine], the protrusions (Bt-474) is given as “inhibited significantly”, the protrusions (MDA-231) is given as “inhibited significantly” and the metastasis (metastasis) is given as “reduce metastasis”.
In the case of `C=C1[C@@H](O)[C@@H]2O[C@]3(CC[C@H](/C=C/[C@@H](C)[C@@H]4CC(C)=C[C@@]5(O[C@H](C[C@@](C)(O)C(=O)O)CC[C@H]5O)O4)O3)CC[C@H]2O[C@@H]1[C@@H](O)C[C@H](C)[C@H]1O[C@@]2(CCCCO2)CC[C@H]1C` [Okadaic acid], the microtentacles (microtentacles) is reported as “reduce microtentacles significantly” and the microtentacles (microtentacles; listed as okadaic acid) is reported as “reduces microtentacles”.
In the case of `N[C@@H](CSC(c1ccccc1)(c1ccccc1)c1ccccc1)C(=O)O` [S-Trityl-L-Cysteine], the protrusions (MCF10A cells [1]) is reported as “significantly reduces protrusions”.
With `CN[C@H]1CCc2cc(OC)c(OC)c(OC)c2-c2ccc(OC)c(=O)cc21` [colcemid] the protrusions [2] was “inhibited”.
In the case of `COc1ccc(CNc2nc(NCc3ccc(OC)cc3)c3ncn(C(C)C)c3n2)cc1` [myoseverin], the protrusions [2] is reported as “inhibited”.
With `COC(=O)Nc1nc2ccc(C(=O)c3cccs3)cc2[nH]1` [nocodazole] the protrusions [2] was “inhibited”, the “attachment of cells” value (EpH4-Bcl2 cells [4]) was “significantly delayed attachment” and the “cell-cell attachment (clustering)” value (EpH4-Bcl2 cells [5]) was “prevented efficient clustering”.
In the case of `[Na+].[Na+].[Na+].[O]=[V]([O-])([O-])[O-]` [sodium orthovanadate], the protrusions (MCF10A cells [1]) is reported as “significantly reduces protrusions”.
In the case of `CC[C@]1(O)C[C@@H]2CN(CCc3c([nH]c4ccccc34)[C@@](C(=O)OC)(c3cc4c(cc3OC)N(C)[C@H]3[C@@](O)(C(=O)OC)[C@H](OC(C)=O)[C@]5(CC)C=CCN6CC[C@]43[C@@H]65)C2)C1` [vinblastine], the protrusions [2] is reported as “inhibited”, the “attachment of cells” value (EpH4-Bcl2 cells [4]) is reported as “significantly delayed attachment” and the “cell-cell attachment (clustering)” value (EpH4-Bcl2 cells [5]) is reported as “prevented efficient clustering”.
For `CC[C@]1(O)C[C@H]2CN(CCc3c([nH]c4ccccc34)[C@@](C(=O)OC)(c3cc4c(cc3OC)N(C=O)[C@H]3[C@@](O)(C(=O)OC)[C@H](OC(C)=O)[C@]5(CC)C=CCN6CC[C@]43[C@@H]65)C2)C1` [vincristine], the protrusions [2] was “inhibited”.
